According to patent publication US8476197B2, “Aminopropenoates as fungicides” (priority 2009, dated 2013):
Marks after values point to notes of the source that are not given here.

settings: pH 2.3

Structure (SMILES)	Log P
COC(=O)C(C#N)=C(NC(C)C(C)C)c1cccnc1Br (stereo not drawn) [Compound 942]	3.02
COC(=O)C(C#N)=C(NC(C)C(C)C)c1cccnc1Cl (stereo not drawn) [Compound 931]	3
CC(C)C(C)NC(=C(C#N)C(=O)NC1CC1)c1cccnc1Cl (stereo not drawn) [Compound 1451]	2.74
CCOC(=O)C(C#N)=C(NC(C)C(C)C)c1cccnc1-c1ccc(OC)cc1 (stereo not drawn) [Compound 1472]	3.54
COC(=O)C(C#N)=C(NCc1ccc(Cl)cc1)c1cccnc1Cl [Compound 336]	2.98

same assay, conditions: pH 2.7

Structure (SMILES)	Log P
CCOC(=O)C(C#N)=C(NC(C)(C)C#Cc1ccc(C#N)cc1)c1cn(C)nc1C(F)F [Compound 1090]	3.37^[a]
COC(=O)C(C#N)=C(NCc1nc(C)cs1)c1sc(C)nc1C(F)(F)F [Compound 181]	2.58^[a]
C#CC(C)(C)NC(=C(C#N)C(=O)OCC)c1sc(Cl)nc1Cl [Compound 1036]	3.61^[a]
CCOC(=O)C(C#N)=C(NC(C)CC)c1cccnc1C(F)(F)F (racemic) [Compound 840]	3.27^[a]
CCOC(=O)C(C#N)=C(NC(C(=O)OC)c1ccccc1)c1cccnc1Cl (stereo not drawn) [Compound 1195]	3.08^[a]
CCOC(=O)C(C#N)=C(NC(C)c1ccccn1)c1cn(C)nc1C(F)F (racemic) [Compound 36]	2.33^[a]
CCOC(=O)C(C#N)=C(NC(C)COCC(C)(C)C)c1cn(C)nc1C(F)F (stereo not drawn) [Compound 1135]	4.08^[a]
CCOC(=O)C(C#N)=C(NCC(C)N)c1cn(C)nc1C(F)F (racemic) [Compound 579]	0.84^[a]
CCOC(=O)C(C#N)=C(NC(C)c1cccc2ccccc12)c1nc(Cl)ccc1Cl (stereo not drawn) [Compound 1]	4.4^[a]
CCOC(=O)C(C#N)=C(NC1CCC1)c1cc(Cl)cc(Cl)n1 [Compound 801]	3.79^[a]
COC(=O)C(C#N)=C(NC(C)CF)c1cccnc1Cl (stereo not drawn) [Compound 746]	2.05^[a]
CC(NC(=C(C#N)C(=O)N1CCCO1)c1cccnc1Cl)c1nccs1 (stereo not drawn) [Compound 1599]	1.9^[a]
CCCCC[C@H](C)N/C(=C(/C#N)C(=O)OCC)c1ccsc1Br [Compound 861]	4.94^[a]
CCOC(=O)C(C#N)=C(NC(C)C1CCCCC1)c1ccsc1Br (stereo not drawn) [Compound 877]	5.03^[a]
CCOC(=O)C(C#N)=C(NC(C)C(F)(F)F)c1sc(Cl)nc1Cl (racemic) [Compound 809]	3.75^[a]
CCOC(=O)C(C#N)=C(NC(C)C(C)C)c1cnc(Cl)cc1Cl (stereo not drawn) [Compound 968]	3.96^[a]
CCOC(=O)C(C#N)=C(NC(C)C1(C)CC1)c1cccnc1Cl (stereo not drawn) [Compound 1533]	3.46^[a]
CC(NC(=C(C#N)C(=O)O)c1cccnc1Cl)c1ccccn1 (stereo not drawn) [Compound 1571]	1.37^[a]
CCOC(=O)C(C#N)=C(NC1COC1)c1cn(C)nc1C(F)F [Compound 1339]	1.79^[a]
CCOCC(NC(=C(C#N)C(=O)OCC)c1cn(C)nc1C(F)F)C(C)C (stereo not drawn) [Compound 1350]	3.39^[a]
CCOC(=O)C(C#N)=C(Nc1ccc(C#N)cc1)c1cn(C)nc1C(F)F [Compound 1217]	2.64^[a]
CCOC(=O)C(C#N)=C(NC(C)C1CCCO1)c1cc(C)oc1C (stereo not drawn) [Compound 118]	3.27^[a]

Structure (SMILES)	Log P
CCOC(=O)C(C#N)=C(NC(C)CON=C(C)c1ccccc1)c1cn(C)nc1C(F)F (stereo not drawn) [Compound 1112]	3.83^[a]
CC#CC(C)NC(=C(C#N)C(=O)OCC)c1cccnc1Cl (stereo not drawn) [Compound 1198]	3.02^[a]
CCOC(=O)C(C#N)=C(NC(C)CC)c1cccnc1C(F)F (racemic) [Compound 842]	2.87^[a]
COC(=O)C(C#N)=C(NC(C)c1ccc(C(C)(C)C)cc1)c1cccnc1Cl (stereo not drawn) [Compound 406]	4.23^[a]
COC(=O)C(C#N)=C(NC(C)C(C)C)c1cccnc1Cl (stereo not drawn) [Compound 931]	2.76
CCOC(=O)C(C#N)=C(NC(C)c1ncc(Br)cc1Cl)c1cccnc1Cl (mixture of isomers) [Compound 287]	3.9^[a]
CCOC(=O)C(C#N)=C(NC(C)c1ccc(Cl)cn1)c1cccnc1Cl (stereo not drawn) [Compound 1445]	3.3^[a]
CCOC(=O)C(C#N)=C(NC(C)c1ccc(Cl)cc1)c1ccnc(Cl)c1Cl (racemic) [Compound 544]	4.21^[a]
COC(=O)C(C#N)=C(NC(C)CCc1ccccc1)c1sc(C)nc1C(F)(F)F (mixture of isomers) [Compound 441]	4.01^[a]
COC(=O)C(C#N)=C(NC1CCCC(C)C1)c1cccnc1Cl (stereo not drawn) [Compound 1074]	3.37^[a]
CCOC(=O)C(C#N)=C(NC(C(=O)OC)C(C)C)c1cn(C)cc1C(F)(F)F (stereo not drawn) [Compound 726]	3.43^[a]
CCOC(=O)C(C#N)=C(NC(C)c1ccccn1)c1cn(C)nc1I (racemic) [Compound 1248]	2.37^[a]
CCOC(=O)C(C#N)=C(NC(C)(C)C#CCOC)c1sc(C)nc1C(F)(F)F [Compound 1102]	3.42^[a]
CCOC(=O)C(C#N)=C(NC(C)Cc1cc2ccccc2[nH]1)c1c(C)nn(C)c1Cl (stereo not drawn) [Compound 113]	3.24^[a]
CCc1ccc(C(C)NC(=C(C#N)C(=O)OC)c2cccnc2Cl)cc1 (stereo not drawn) [Compound 407]	3.63^[a]
CCOC(=O)C(C#N)=C(Nc1ccc(N(C)C)cc1)c1sc(C)nc1C(F)(F)F [Compound 493]	3.71^[a]
COC(=O)C(C#N)=C(NC(C)C(C)C)c1sc(C)nc1C(F)(F)F (stereo not drawn) [Compound 948]	3.63^[a]
COC(=O)C(C#N)=C(NC(C)c1ccc(OC)cc1)c1cccnc1Cl (stereo not drawn) [Compound 408]	2.65^[a]
CCOC(=O)C(C#N)=C(NC(C)(C)c1ccccc1)c1cn(C)nc1C(F)F [Compound 551]	3.33^[a]
CCOC(=O)C(C#N)=C(NC(c1cc2ccccc2s1)C(F)(F)F)c1conc1C (stereo not drawn) [Compound 93]	4.24^[a]
CCOC(=O)C(C#N)=C(NC(C)c1ccccn1)c1ccnc(-c2ccccc2)c1Cl (racemic) [Compound 1398]	3.33^[a]
CC(C)C(C)NC(=C(C#N)C(=O)O)c1sccc1Br (stereo not drawn) [Compound 964]	2.74^[a]

Structure (SMILES)	Log P
CCOC(=O)C(C#N)=C(NC(C)c1ccc(C)cc1)c1cn(C)nc1C(F)F (mixture of isomers) [Compound 455]	3.51^[a]
CCOC(=O)C(C#N)=C(NC(C)C1CC1)c1cnc(Cl)cc1Cl (stereo not drawn) [Compound 890]	3.64^[a]
CCOC(=O)C(C#N)=C(NC1CCC1)c1cnccc1C(F)(F)F [Compound 800]	3.06^[a]
CCOC(=O)C(C#N)=C(NC(c1ccc(N(C)C)cc1)C(F)(F)F)c1cccnc1Cl (racemic) [Compound 1260]	3.99^[a]
CCNC(=O)C(C#N)=C(NC(C)c1nccs1)c1ccnc(C)c1Cl (stereo not drawn) [Compound 1306]	2.18^[a]
COC(=O)C(C#N)=C(NC(C)c1ccccc1Cl)c1cccnc1Cl (stereo not drawn) [Compound 375]	3.19^[a]
CCOC(=O)C(C#N)=C(NC(C)COC)c1cc(Cl)sc1Cl (stereo not drawn) [Compound 1588]	3.78^[a]
COC(=O)C(C#N)=C(NC(C)C1CC1)c1sc(C)nc1C(F)(F)F (stereo not drawn) [Compound 884]	3.27^[a]
CCOC(=O)C(C#N)=C(NC(C)C1CC1)c1cccnc1C(F)(F)F (stereo not drawn) [Compound 892]	3.35^[a]
CC(C)C(C)NC(=C(C#N)C(=O)NC1CC1(C)C)c1cccnc1Cl (mixture of isomers) [Compound 1495]	3.72^[a]
CCOC(=O)C(C#N)=C(NC(C)c1ccccn1)c1ccncc1F (mixture of isomers) [Compound 300]	2.28^[a]
CCOC(=O)C(C#N)=C(Nc1ccc(Cl)cc1)c1sc(C)nc1C(F)(F)F [Compound 512]	3.92^[a]
CCOC(=O)C(C#N)=C(Nc1cccc(SC)c1)c1ccsc1Br [Compound 537]	4.04^[a]
CCOC(=O)C(C#N)=C(NC(C)c1ccccc1)c1cn(C)nc1C(F)F (mixture of isomers) [Compound 456]	3.17^[a]
CCOC(=O)C(C#N)=C(NC(C)C(C)C)c1cn(C)nc1CC (stereo not drawn) [Compound 1205]	3.13^[a]
CCOC(=O)C(C#N)=C(NC1CCC1)c1ccncc1Br [Compound 803]	2.9^[a]
CCOC(=O)C(C#N)=C(NCc1nc(C)cs1)c1sc(C)nc1C(F)(F)F [Compound 195]	2.9^[a]
COC(=O)C(C#N)=C(NC(C)c1ccncc1)c1cccnc1Cl (stereo not drawn) [Compound 371]	1.24^[a]
CCOC(=O)C(C#N)=C(NC(C(=O)OC)C(C)C)c1sc(C)nc1C(F)(F)F (stereo not drawn) [Compound 682]	3.64^[a]
CC(NC(=C(C#N)C(=O)N(C)C)c1cn(C)nc1C(F)F)c1nccs1 (stereo not drawn) [Compound 1296]	1.81^[a]
CCOC(=O)C(C#N)=C(NC(C(=O)OC)C(C)C)c1cn(C)nc1C(F)F (racemic) [Compound 674]	2.84^[a]
CCOC(=O)C(C#N)=C(NCc1ncccc1C(F)(F)F)c1cccnc1Cl [Compound 1554]	3^[a]

same assay, conditions: pH 7.5

Structure (SMILES)	Log P
CC(C)OC(=O)C(C#N)=C(NC(C)c1nc2ccccc2s1)c1cccnc1Cl (stereo not drawn) [Compound 29]	3.63
COC(=O)C(C#N)=C(NC(C)C(C)C)c1cccnc1Br (stereo not drawn) [Compound 942]	2.88
COC(=O)C(C#N)=C(NC(C)c1nc2ccccc2s1)c1cccnc1Cl (stereo not drawn) [Compound 15]	2.95
COC(=O)C(C#N)=C(NC(C)C(C)C)c1cccnc1Cl (stereo not drawn) [Compound 931]	2.83
CC(C)C(C)NC(=C(C#N)C(=O)NC1CC1)c1cccnc1Cl (stereo not drawn) [Compound 1451]	2.76
CCOC(=O)C(C#N)=C(NC(C)C(C)C)c1cccnc1-c1ccc(OC)cc1 (stereo not drawn) [Compound 1472]	3.59
COC(=O)C(C#N)=C(NCc1ccc(Cl)cc1)c1cccnc1Cl [Compound 336]	2.96
